Laboratory results: patent US10828368B2, “Therapeutic treatments using centhaquin” (MIDWESTERN UNIVERSITY, priority 2009, dated 2020)
Read-outs that look alike come from different tables or passages of the source.

Key:
[1] = once a day for 15 days; cited from earlier work
[2] = Arterial blood gas analysis before and one hour after drug; format: in vivo, rat; details: for changes in arterial blood pH, pO2, pCO2, Na^+, K^+, lactate and hematocrit: before versus one hour after clonidine 90 μg/kg or centhaquin 0.45 mg/kg
Description: Arterial blood pH, pO2, pCO2, Na^+, K^+, and lactate were monitored prior to and after drug administration. Blood samples were drawn from the arterial cannula using blood gas sampling syringes (Innovative Medical Technologies, Inc. Leawood, Kans.) and analyzed using a GEM Premier 3000 unit (Instrument Laboratory, Lexington, Mass.).
Blood samples were drawn from the arterial cannula using blood gas sampling syringes (Innovative Medical Technologies, Inc. Leawood, Kans.) and analyzed using a GEM Premier 3000 unit (Instrument Laboratory, Lexington, Mass.).

rats [3] = test: Tail-flick latency analgesia (FIGS. 9-13); format: in vivo, rat; details: iv
[4] = tested on: α-adrenergic receptors in the hypothalamus and medulla; details: chronic administration in rats; with hypotension and bradycardia; cited from earlier work
mice = details: intraperitoneal; cited from earlier work
rats [5] = details: cited from earlier work
norepinephrine release = details: centhaquin 0.1, 1.0 and 10.0 μg/ml; cited from earlier work
[6] = tested on: urethane anaesthetized rats; test: Cardiovascular response (MAP, PP, HR) of drugs in urethane anaesthetized rats; format: in vivo, rat; details: for decrease in MAP / reduction in HR: compared to baseline; for dose-response effect on MAP, PP and HR: clonidine 10, 30, 90 μg/kg i.v., centhaquin 0.05, 0.15, 0.45 mg/kg i.v.
Description: Rats were anaesthetized with urethane (1.5 g/kg i.p.) and prepared for the determination of hemodynamic parameters (Gulati and Srimal, 1993; Gulati et al., 1997b). The anesthetized rats were shaved and immobilized to prepare for cannulation. A 2-3 cm incision was made above the femoral vein and artery, and the vessels were dissected and cleaned. The left femoral vein was cannulated (PE-50 tubing, Clay Adams, Parsipanny, N.J.) and secured for drug administration. An ultra-miniature Pressure transducer SPR-320 (2F Polyurethane), with a single pressure sensor side mounted at the tip (Millar Instruments, Houston, Tex.), was inserted in the left femoral artery to acquire the hemodynamic signals. Pressure transducer was connected to bridge amplifier (ML221 Bridge Amp; AD Instruments, Mountain View, Calif., USA) with Viking connector (AEC-10C) and the signals were continuously acquired at a sampling rate of 1000 S^−1 using Millar PowerLab 16/30 data acquisition system (AD Instruments, Mountain View, Calif., USA). MAP, HR, and PP were determined and analyzed with LabChart-5.00 software program (Millar Instruments). After the experiment was completed, the animals were euthanized with higher dose of urethane (3 gm/kg).
The animals were allowed to stabilize for at least 20 min following surgical procedures.
In the above studies, all drugs were injected through the left femoral vein and changes in MAP, HR, and PP after clonidine and centhaquin injection were recorded for 1 hour using Millar PowerLab 16/30 data acquisition system.

[7] = tested on: rats in the hemorrhagic shock model; test: Hemorrhagic shock model, resuscitation with Ringer's lactate and centhaquin; format: in vivo, rat
[8] = tested on: 5-HT1 receptors in the medulla; details: cited from earlier work
[9] = one hour after clonidine 90 μg/kg or centhaquin 0.45 mg/kg

## Cc1cccc(N2CCN(CCc3ccc4ccccc4n3)CC2)c1 [Centhaquin]
[1]
  potentiation or tolerance on repeated administration: did not produce any potentiation or tolerance
[2]
  changes in arterial blood pH, pO2, pCO2, Na^+, K^+, lactate and hematocrit: did not affect arterial blood pH, pO2, and pCO2
[2]; listed as centhaquin
  changes in arterial blood pH, pO2, pCO2, Na^+, K^+, lactate and hematocrit: no significant changes
[2]; [9]
  Hct: 52 ± 1%
  K^+: 4.0 ± 0.2 mmol/L
  Na^+: 140 ± 1 mmol/L
  arterial blood pH: 7.27 ± 0.02
  pCO2: 53 ± 2 mmHg
  pO2: 96 ± 9 mmHg
Rats [3]; centhaquin 0.3 mg/kg
  analgesic effect relative to 4 mg/kg dose of morphine: comparable
Rats [3]; centhaquin 0.9 mg/kg
  analgesic effect relative to 4 mg/kg dose of morphine: significantly greater
Rats [3]; centhaquin 0.1, 0.3 and 0.9 mg/kg
  analgesia (tail-flick latency): dose-dependent analgesia
Rats [3]; centhaquin 0.3 and 0.9 mg/kg
  effect on morphine analgesia: potentiated
[4]
  effect of chronic administration on α-adrenergic receptors in the hypothalamus and medulla: up-regulation
mice
  LD50: 600 mg/kg
Rats [5]; centhaquin 0.05 to 0.2 mg/kg, iv, urethane anesthetized rats
  effect on MAP and HR: dose-dependent decrease
Rats [5]; cervical sectioned rats, intravenously administered
  effect on MAP or HR: did not produce any effect
Rats [5]; intrathecal administration
  effect on MAP or HR: did not produce any effect
Norepinephrine release
  norepinephrine release evoked by potassium chloride and dimethyl phenyl piperazinium chloride: inhibited
  spontaneous release of norepinephrine: initial increase followed by decrease
[6]; centhaquin 0.05 mg/kg i.v.
  decrease in MAP: 15.64%
  reduction in HR: 10.49%
[6]; centhaquin 0.15 mg/kg i.v.
  decrease in MAP: 25.15%
  reduction in HR: 12.57%
[6]; centhaquin 0.45 mg/kg i.v.
  decrease in MAP: 28.08%
  reduction in HR: 13.34%
[6]
  dose-response effect on MAP, PP and HR: dose-dependent fall in MAP, and a decrease in HR
[6]; listed as centhaquin
  dose-response effect on MAP, PP and HR: dose-dependent hypotension and bradycardia
[7]; LR-100 and centhaquin 0.05 mg/kg compared with LR-100
  pressure-volume loops: improvement
[7]; centhaquin 0.05-0.45 mg/kg
  blood lactate, comparison of centhaquin doses: lower doses of centhaquin were more effective than the higher doses
[7]; centhaquin 0.05-0.45 mg/kg with Ringer's lactate
  blood lactate: drop in lactate
[7]; centhaquin administered with LR-100
  survival time: increase in survival time
[8]
  effect of repeated administration on 5-HT1 receptors in the medulla: up-regulation
